Results: patent US7943575B2, “Sustained release drug formulations containing a carrier peptide” (Ipsen Pharma S.A.S., priority 2002, dated 2011)
Read-outs that look alike come from different tables or passages of the source. Blank lines part the entries; values can stand above or below the compound they belong to.

Assay: Pharmacokinetic profile of a SOMATULINE/DECAPEPTYL composition in beagle dogs (RIA of blood samples)
Assay type: in vivo
Excerpt: Once a particular peptide or peptide salt is found to gel in an in vitro assay, e.g., an assay as described above, an in vivo assay can be used to determine the suitability of that peptide salt for use as a sustained-release carrier peptide of a therapeutic agent or agents in animals or humans. A blood level release profile for the carrier peptide and/or the therapeutic agent or agents can be determined by injecting the composition into an animal, e.g., a Sprague Dawley rat, a dog, etc., and testing blood samples taken at specific time intervals, e.g., hourly intervals over 1 to 5 days, or 12 or 24 hour intervals over 5 to 45 days, for the concentration of the peptide and/or therapeutic agent or agents. The suitability of a particular peptide gel, or a peptide/carrier gel, for therapeutic delivery of the carrier peptide and/or therapeutic agent or agents can thus be determined.
Generally, in such an assay animals are anaesthetized with pentobarbital (60 mg/kg i.p. for rats), and a jugular vein is cannulated for blood sampling. A test semisolid suspension or solid composition (or standard solution for comparison purposes), e.g., a SOMATULINE/DECAPEPTYL mixture, is injected subcutaneously at a specific dosage, e.g., 1.0, 3.0, or 6.0 mg/kg of SOMATULINE. After administration of the composition or solution, heparinized blood samples are obtained through the cannula at set time intervals, and plasma is separated after centrifugation. The amount of carrier peptide and/or therapeutic agent(s) in the plasma samples is/are determined by, e.g., a standard radioimmunoassay (RIA) technique that allows a direct measurement of the carrier peptide and/or therapeutic agent(s) without extraction from the rat plasma. The resulting data are plotted (e.g., blood concentration (ng/ml) vs. time) to establish a blood level release profile.
0.15 ml of the foregoing semisolid mixture from Example 1 was loaded into a 0.3 ml insulin syringe and was injected into beagle dogs. Blood samples were collected and standard radioimmunoassay (RIA) analysis was performed thereon.

level at 0.24 h (beagle, dog, in vivo, 0.15 ml): 2.66 ng/mL
level at 0.48 h (beagle, dog, in vivo, 0.15 ml): 6.04 ng/mL
level at 0.96 h (beagle, dog, in vivo, 0.15 ml): 9.97 ng/mL
level at 1.92 h (beagle, dog, in vivo, 0.15 ml): 16.4 ng/mL
level at 4.08 h (beagle, dog, in vivo, 0.15 ml): 17.3 ng/mL
level at 6 h (beagle, dog, in vivo, 0.15 ml): 21.2 ng/mL
level at 9.12 h (beagle, dog, in vivo, 0.15 ml): 23.1 ng/mL
level at 24 h (beagle, dog, in vivo, 0.15 ml): 8.11 ng/mL
level at 47.76 h (beagle, dog, in vivo, 0.15 ml): 3.97 ng/mL
level at 72.48 h (beagle, dog, in vivo, 0.15 ml): 3.16 ng/mL
level at 144.96 h (beagle, dog, in vivo, 0.15 ml): 1.35 ng/mL
level at 192.96 h (beagle, dog, in vivo, 0.15 ml): 0.94 ng/mL
level at 241.44 h (beagle, dog, in vivo, 0.15 ml): 0.5 ng/mL
level at 312.96 h (beagle, dog, in vivo, 0.15 ml): 0.42 ng/mL
level at 361.2 h (beagle, dog, in vivo, 0.15 ml): 0.32 ng/mL
level at 408.48 h (beagle, dog, in vivo, 0.15 ml): 0.24 ng/mL
level at 483.36 h (beagle, dog, in vivo, 0.15 ml): 0.19 ng/mL
level at 528.96 h (beagle, dog, in vivo, 0.15 ml): 0.13 ng/mL
level at 577.44 h (beagle, dog, in vivo, 0.15 ml): 0.11 ng/mL
level at 650.88 h (beagle, dog, in vivo, 0.15 ml): 0.07 ng/mL
duration of sustained release of therapeutic levels in the blood (dog, in vivo): one month or longer
SMILES: CC(C)C[C@H](NC(=O)[C@@H](Cc1c[nH]c2ccccc12)NC(=O)[C@H](Cc1ccc(O)cc1)NC(=O)[C@H](CO)NC(=O)[C@H](Cc1c[nH]c2ccccc12)NC(=O)[C@H](Cc1c[nH]cn1)NC(=O)[C@@H]1CCC(=O)N1)C(=O)N[C@@H](CCCNC(=N)N)C(=O)N1CCC[C@H]1C(=O)NCC(N)=O [DECAPEPTYL]

SMILES: CC(C)[C@@H]1NC(=O)[C@H](CCCCN)NC(=O)[C@@H](Cc2c[nH]c3ccccc23)NC(=O)[C@H](Cc2ccc(O)cc2)NC(=O)[C@@H](NC(=O)[C@H](N)Cc2ccc3ccccc3c2)CSSC[C@@H](C(=O)N[C@H](C(N)=O)[C@@H](C)O)NC1=O [SOMATULINE, lanreotide]
level at 0 h (dog, in vivo, TIME 0.00 days, beagle dogs, 0.15 ml Example 1 semisolid mixture injected, read-out: concentration in blood samples (RIA)): 0.02 ng/mL
level at 0.24 h (dog, in vivo, TIME 0.01 days, beagle dogs, 0.15 ml Example 1 semisolid mixture injected, read-out: concentration in blood samples (RIA)): 3.91 ng/mL
level at 0.48 h (dog, in vivo, TIME 0.02 days, beagle dogs, 0.15 ml Example 1 semisolid mixture injected, read-out: concentration in blood samples (RIA)): 7.29 ng/mL
level at 0.96 h (dog, in vivo, TIME 0.04 days, beagle dogs, 0.15 ml Example 1 semisolid mixture injected, read-out: concentration in blood samples (RIA)): 9.34 ng/mL
level at 1.92 h (dog, in vivo, TIME 0.08 days, beagle dogs, 0.15 ml Example 1 semisolid mixture injected, read-out: concentration in blood samples (RIA)): 12.6 ng/mL
level at 4.08 h (dog, in vivo, TIME 0.17 days, beagle dogs, 0.15 ml Example 1 semisolid mixture injected, read-out: concentration in blood samples (RIA)): 17.3 ng/mL
level at 6 h (dog, in vivo, TIME 0.25 days, beagle dogs, 0.15 ml Example 1 semisolid mixture injected, read-out: concentration in blood samples (RIA)): 19.5 ng/mL
level at 9.12 h (dog, in vivo, TIME 0.38 days, beagle dogs, 0.15 ml Example 1 semisolid mixture injected, read-out: concentration in blood samples (RIA)): 17.8 ng/mL
level at 24 h (dog, in vivo, TIME 1.00 days, beagle dogs, 0.15 ml Example 1 semisolid mixture injected, read-out: concentration in blood samples (RIA)): 11.4 ng/mL
level at 47.76 h (dog, in vivo, TIME 1.99 days, beagle dogs, 0.15 ml Example 1 semisolid mixture injected, read-out: concentration in blood samples (RIA)): 9.51 ng/mL
level at 72.48 h (dog, in vivo, TIME 3.02 days, beagle dogs, 0.15 ml Example 1 semisolid mixture injected, read-out: concentration in blood samples (RIA)): 7.77 ng/mL
level at 144.96 h (dog, in vivo, TIME 6.04 days, beagle dogs, 0.15 ml Example 1 semisolid mixture injected, read-out: concentration in blood samples (RIA)): 6.63 ng/mL
level at 192.96 h (dog, in vivo, TIME 8.04 days, beagle dogs, 0.15 ml Example 1 semisolid mixture injected, read-out: concentration in blood samples (RIA)): 5.99 ng/mL
level at 241.44 h (dog, in vivo, TIME 10.06 days, beagle dogs, 0.15 ml Example 1 semisolid mixture injected, read-out: concentration in blood samples (RIA)): 4.88 ng/mL
level at 312.96 h (dog, in vivo, TIME 13.04 days, beagle dogs, 0.15 ml Example 1 semisolid mixture injected, read-out: concentration in blood samples (RIA)): 3.14 ng/mL
level at 361.2 h (dog, in vivo, TIME 15.05 days, beagle dogs, 0.15 ml Example 1 semisolid mixture injected, read-out: concentration in blood samples (RIA)): 2.54 ng/mL
level at 408.48 h (dog, in vivo, TIME 17.02 days, beagle dogs, 0.15 ml Example 1 semisolid mixture injected, read-out: concentration in blood samples (RIA)): 1.85 ng/mL
level at 483.36 h (dog, in vivo, TIME 20.14 days, beagle dogs, 0.15 ml Example 1 semisolid mixture injected, read-out: concentration in blood samples (RIA)): 1.46 ng/mL
level at 528.96 h (dog, in vivo, TIME 22.04 days, beagle dogs, 0.15 ml Example 1 semisolid mixture injected, read-out: concentration in blood samples (RIA)): 1.3 ng/mL
level at 577.44 h (dog, in vivo, TIME 24.06 days, beagle dogs, 0.15 ml Example 1 semisolid mixture injected, read-out: concentration in blood samples (RIA)): 1.11 ng/mL
level at 650.88 h (dog, in vivo, TIME 27.12 days, beagle dogs, 0.15 ml Example 1 semisolid mixture injected, read-out: concentration in blood samples (RIA)): 0.65 ng/mL
level at 698.64 h (dog, in vivo, TIME 29.11 days, beagle dogs, 0.15 ml Example 1 semisolid mixture injected, read-out: concentration in blood samples (RIA)): 0.52 ng/mL
level at 745.2 h (dog, in vivo, TIME 31.05 days, beagle dogs, 0.15 ml Example 1 semisolid mixture injected, read-out: concentration in blood samples (RIA)): 0.52 ng/mL
level at 818.64 h (dog, in vivo, TIME 34.11 days, beagle dogs, 0.15 ml Example 1 semisolid mixture injected, read-out: concentration in blood samples (RIA)): 0.5 ng/mL
level at 866.88 h (dog, in vivo, TIME 36.12 days, beagle dogs, 0.15 ml Example 1 semisolid mixture injected, read-out: concentration in blood samples (RIA)): 0.45 ng/mL
level at 912.72 h (dog, in vivo, TIME 38.03 days, beagle dogs, 0.15 ml Example 1 semisolid mixture injected, read-out: concentration in blood samples (RIA)): 0.34 ng/mL
level at 984.72 h (dog, in vivo, TIME 41.03 days, beagle dogs, 0.15 ml Example 1 semisolid mixture injected, read-out: concentration in blood samples (RIA)): 0.27 ng/mL
level at 1082.4 h (dog, in vivo, TIME 45.10 days, beagle dogs, 0.15 ml Example 1 semisolid mixture injected, read-out: concentration in blood samples (RIA)): 0.17 ng/mL
level at 1160.64 h (dog, in vivo, TIME 48.36 days, beagle dogs, 0.15 ml Example 1 semisolid mixture injected, read-out: concentration in blood samples (RIA)): 0.14 ng/mL
level at 1199.76 h (dog, in vivo, TIME 49.99 days, beagle dogs, 0.15 ml Example 1 semisolid mixture injected, read-out: concentration in blood samples (RIA)): 0.15 ng/mL
level at 1248.24 h (dog, in vivo, TIME 52.01 days, beagle dogs, 0.15 ml Example 1 semisolid mixture injected, read-out: concentration in blood samples (RIA)): 0.21 ng/mL
level at 1368.96 h (dog, in vivo, TIME 57.04 days, beagle dogs, 0.15 ml Example 1 semisolid mixture injected, read-out: concentration in blood samples (RIA)): 0.14 ng/mL
level at 1417.92 h (dog, in vivo, TIME 59.08 days, beagle dogs, 0.15 ml Example 1 semisolid mixture injected, read-out: concentration in blood samples (RIA)): 0.27 ng/mL
level at 1536.48 h (dog, in vivo, TIME 64.02 days, beagle dogs, 0.15 ml Example 1 semisolid mixture injected, read-out: concentration in blood samples (RIA)): 0.21 ng/mL
level at 1584.48 h (dog, in vivo, TIME 66.02 days, beagle dogs, 0.15 ml Example 1 semisolid mixture injected, read-out: concentration in blood samples (RIA)): 0.2 ng/mL
level at 1656.24 h (dog, in vivo, TIME 69.01 days, beagle dogs, 0.15 ml Example 1 semisolid mixture injected, read-out: concentration in blood samples (RIA)): 0.16 ng/mL
level at 1707.6 h (dog, in vivo, TIME 71.15 days, beagle dogs, 0.15 ml Example 1 semisolid mixture injected, read-out: concentration in blood samples (RIA)): 0.15 ng/mL
duration of sustained release of therapeutic levels in the blood (gel with SOMATULINE as carrier peptide and DECAPEPTYL as therapeutic agent, see Example 1): one month or longer
